Experimental findings from patent EP0679399B1, “Phosphate diesters for treatment of epidermis proliferative diseases” (Senju Pharmaceutical Co., Ltd., priority 1994, dated 1995) are described below.

A word on the LD50: it is the dose expected to kill half of the subjects tested. Read a low LD50 as a more toxic substance.

A short description of series [1]: Acute toxicity (LD50) in rats. To be noted: rat, in vivo. As for the experimental part:
The present compounds are very safe with extremely low toxic potential and can, therefore, be used with advantage for the purposes of this invention. For example, the LD50 of L-ascorbyl DL-α-tocopheryl phosphate potassium (abbreviation: EPC-K): is ≥ 5 g/kg p.o. (rats) and ≥ 100 mg/kg i.v. (rats).

Series [2] has as its system mouse model of psoriasis vulgaris. The experiment in a line: Mouse model of psoriasis vulgaris induced by TPA (ear epidermal weight gain, ear swelling rate). The class given is in vivo, ddY mice. To be noted: for inhibited the epidermal weight gain: relative to control; for Epidermal weight % gain: right vs left auricle, 72 hours after TPA, mean±SD (n=6-9). As for the experimental part: The efficacy of EPC-K was assayed in the mouse model of psoriasis vulgaris using 12-o-tetradecanoylphorbol-13-acetate (briefly TPA).
Male 6-week-old ddY mice purchased from SLC Japan were used.
The entire external surface of the right auricle of each mouse was coated with 20 nmol/40 µl of TPA/methanol, and after 6, 24, 48 and 72 hours, the thickness of the auricle was measured with a dial thickness gauge. The ear swelling rate (%) was then calculated. At 72 hours after application of TPA, the mouse was sacrificed and the right and left auricles were respectively punched out with a 8 mm (dia.) punch. The epidermis of each auricle was peeled off and the epidermal weight was determined. Then, the % gain in epidermal weight of the right auricle relative to the left auricle was calculated.
Each test substance was extemporaneously blended with TPA-methanol and 40 µl of the mixture was applied to the external surface of the right auricle of each mouse. Then, a methanolic solution of the corresponding test substance, 40 µl, was applied once daily for 2 days.
Dunnet's test was used for statistical efficacy evaluation of the test substance.

`Cc1c(C)c2c(c(C)c1OP(=O)(O)OC1=C(O)[C@@H]([C@@H](O)CO)OC1=O)CCC(C)(CCCC(C)CCCC(C)CCCC(C)C)O2` (mixture of isomers) [EPC-K, L-ascorbyl DL-α-tocopheryl phosphate potassium]: the LD50 is at least 100 mg/kg in series [1] (iv) and at least 5000 mg/kg in series [1] (po). Besides, the “inhibited the epidermal weight gain” value was determined as 52.8% in series [2] (500 µg/auricle) and 80.3% in series [2] (1000 µg/auricle). The “Epidermal weight % gain” value in series [2] (500 µg/auricle) stood at 52.4±40.1 %; in series [2] (1000 µg/auricle), 21.8±17.4 %. Moreover, the ear swelling rate entry is “more potent inhibitory effect” in series [2] (1000 µg/auricle, compared with 25 µg betamethasone valerate (Fig. 1)); “dose-dependent inhibitory effects at all points of time” in series [2] (500 and 1000 µg/auricle, 6, 24, 48 and 72 hours after TPA (Fig. 1)).

Regarding `CCCCC(=O)O[C@]1(C(=O)CO)[C@@H](C)C[C@H]2[C@@H]3CCC4=CC(=O)C=C[C@]4(C)[C@@]3(F)[C@@H](O)C[C@@]21C` [Betamethasone valerate, reference compound], in series [2] (25 µg/auricle), the “body weight (side effect)” value is given as “induced body weight loss”, the “inhibited the epidermal weight gain” value was 81.1% and the “Epidermal weight % gain” value was 21.0±19.9 %. Besides, in series [2] (25 µg/auricle, 6, 24, 48 and 72 hours after TPA (Fig. 1)), the ear swelling rate result was “fairly potent efficacy but its effect had been attenuated by 24 and 48 hours after application”.
